ChEMBL document CHEMBL4507259 (2021)
Active and inactive are the calls of the source. No cut-off for these calls is given here.

Tests used:
LNCaP-Clone-FGC = assay: LnCaP-FGC Proliferation; assay type: functional, cell-based; details: Homo sapiens
[1] = biological target: T1, Muscarinic acetylcholine receptor M4 (Homo sapiens) (UniProt P08173); assay: M4 (h) CEREP ligand profiling; details: filed as antagonist, Compound concentration 10.0 uM
T1 sequence (whole entry): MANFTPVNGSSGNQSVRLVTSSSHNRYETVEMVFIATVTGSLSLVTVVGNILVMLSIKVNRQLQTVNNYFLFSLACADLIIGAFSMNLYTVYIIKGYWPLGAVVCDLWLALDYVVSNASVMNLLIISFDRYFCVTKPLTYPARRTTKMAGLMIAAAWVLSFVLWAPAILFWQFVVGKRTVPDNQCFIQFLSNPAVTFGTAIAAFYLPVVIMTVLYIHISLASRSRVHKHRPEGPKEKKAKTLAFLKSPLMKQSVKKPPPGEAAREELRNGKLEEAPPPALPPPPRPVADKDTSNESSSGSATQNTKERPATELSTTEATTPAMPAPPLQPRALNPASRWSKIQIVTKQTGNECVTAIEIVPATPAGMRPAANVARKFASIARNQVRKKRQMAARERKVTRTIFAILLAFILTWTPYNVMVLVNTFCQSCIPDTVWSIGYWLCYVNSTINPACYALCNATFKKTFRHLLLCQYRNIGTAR

[2] = biological target: T2, Alpha-2A adrenergic receptor (Homo sapiens) (UniProt P08913); assay: alpha 2A (h) CEREP ligand profiling; details: filed as antagonist, Compound concentration 10.0 uM
T2 sequence (whole entry): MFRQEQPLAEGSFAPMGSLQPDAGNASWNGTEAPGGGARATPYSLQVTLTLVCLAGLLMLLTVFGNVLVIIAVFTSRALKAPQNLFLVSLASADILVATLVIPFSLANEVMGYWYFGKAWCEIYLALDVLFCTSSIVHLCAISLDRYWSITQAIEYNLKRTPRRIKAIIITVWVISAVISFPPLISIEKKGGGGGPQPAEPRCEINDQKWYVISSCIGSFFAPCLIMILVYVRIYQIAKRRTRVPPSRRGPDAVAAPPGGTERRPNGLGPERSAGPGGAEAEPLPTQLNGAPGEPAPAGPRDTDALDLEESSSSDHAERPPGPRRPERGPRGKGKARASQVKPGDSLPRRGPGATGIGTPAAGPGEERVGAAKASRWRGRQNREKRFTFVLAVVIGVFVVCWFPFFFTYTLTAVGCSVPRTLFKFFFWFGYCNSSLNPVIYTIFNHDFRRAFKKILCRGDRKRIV

[3] = biological target: Vasopressin V1a receptor (Homo sapiens) (UniProt P37288); assay: V1a (h) CEREP ligand profiling; details: filed as agonist, Compound concentration 10.0 uM
[4] = biological target: Urotensin-2 receptor (Homo sapiens) (UniProt Q9UKP6); assay: UT (h) CEREP ligand profiling; details: filed as agonist, Compound concentration 10.0 uM
Urotensin-2 receptor (Homo sapiens), sequence (Q9UKP6 whole entry): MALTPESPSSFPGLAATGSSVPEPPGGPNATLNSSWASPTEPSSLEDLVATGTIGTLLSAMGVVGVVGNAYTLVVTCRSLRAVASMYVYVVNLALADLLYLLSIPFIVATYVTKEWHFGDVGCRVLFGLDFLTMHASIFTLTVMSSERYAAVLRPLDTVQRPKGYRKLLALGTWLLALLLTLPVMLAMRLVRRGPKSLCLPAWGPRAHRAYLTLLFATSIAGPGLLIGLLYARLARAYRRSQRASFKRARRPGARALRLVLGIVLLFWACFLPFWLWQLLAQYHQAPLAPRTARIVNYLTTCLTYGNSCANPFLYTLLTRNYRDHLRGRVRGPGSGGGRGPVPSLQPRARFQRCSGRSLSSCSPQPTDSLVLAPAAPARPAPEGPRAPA

[5] = biological target: T3, Alpha-2B adrenergic receptor (Homo sapiens) (UniProt P18089); assay: alpha 2B (h) CEREP ligand profiling; details: filed as antagonist, Compound concentration 10.0 uM
T3 sequence (whole entry): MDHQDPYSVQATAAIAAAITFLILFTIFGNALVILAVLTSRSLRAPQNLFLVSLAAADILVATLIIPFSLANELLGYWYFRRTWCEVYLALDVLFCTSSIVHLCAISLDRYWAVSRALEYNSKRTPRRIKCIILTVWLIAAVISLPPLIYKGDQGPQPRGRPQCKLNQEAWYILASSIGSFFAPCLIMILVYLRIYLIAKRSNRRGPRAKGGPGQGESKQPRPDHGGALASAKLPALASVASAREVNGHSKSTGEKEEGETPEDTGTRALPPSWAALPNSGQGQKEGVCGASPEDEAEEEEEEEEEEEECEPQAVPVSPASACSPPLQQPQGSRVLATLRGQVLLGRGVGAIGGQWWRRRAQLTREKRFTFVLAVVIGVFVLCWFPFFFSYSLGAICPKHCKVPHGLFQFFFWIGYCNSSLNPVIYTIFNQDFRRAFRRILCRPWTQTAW

[6] = biological target: Protein-tyrosine kinase 6 (Homo sapiens) (UniProt Q13882); details: Compound concentration 1000.0 nM
Protein-tyrosine kinase 6 (Homo sapiens), sequence (Q13882 whole entry, looked up): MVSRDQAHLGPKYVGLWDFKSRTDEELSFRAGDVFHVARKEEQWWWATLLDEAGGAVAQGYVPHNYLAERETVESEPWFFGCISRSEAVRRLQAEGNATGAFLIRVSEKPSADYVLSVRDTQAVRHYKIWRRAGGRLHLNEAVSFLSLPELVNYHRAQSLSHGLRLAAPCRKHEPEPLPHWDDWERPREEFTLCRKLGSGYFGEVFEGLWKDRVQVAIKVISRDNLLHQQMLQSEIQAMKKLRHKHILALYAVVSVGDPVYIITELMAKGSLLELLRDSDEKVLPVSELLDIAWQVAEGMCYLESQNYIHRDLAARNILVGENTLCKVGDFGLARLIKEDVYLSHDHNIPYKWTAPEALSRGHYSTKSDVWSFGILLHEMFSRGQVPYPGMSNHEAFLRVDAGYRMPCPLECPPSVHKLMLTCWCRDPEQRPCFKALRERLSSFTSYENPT

[7] = biological target: Cyclin-dependent kinase 11B (Homo sapiens) (UniProt P21127); details: Compound concentration 1000.0 nM
[8] = biological target: Epithelial discoidin domain-containing receptor 1 (Homo sapiens) (UniProt Q08345); details: Compound concentration 1000.0 nM
Epithelial discoidin domain-containing receptor 1 (Homo sapiens), sequence (Q08345 whole entry, the tested form may be a part): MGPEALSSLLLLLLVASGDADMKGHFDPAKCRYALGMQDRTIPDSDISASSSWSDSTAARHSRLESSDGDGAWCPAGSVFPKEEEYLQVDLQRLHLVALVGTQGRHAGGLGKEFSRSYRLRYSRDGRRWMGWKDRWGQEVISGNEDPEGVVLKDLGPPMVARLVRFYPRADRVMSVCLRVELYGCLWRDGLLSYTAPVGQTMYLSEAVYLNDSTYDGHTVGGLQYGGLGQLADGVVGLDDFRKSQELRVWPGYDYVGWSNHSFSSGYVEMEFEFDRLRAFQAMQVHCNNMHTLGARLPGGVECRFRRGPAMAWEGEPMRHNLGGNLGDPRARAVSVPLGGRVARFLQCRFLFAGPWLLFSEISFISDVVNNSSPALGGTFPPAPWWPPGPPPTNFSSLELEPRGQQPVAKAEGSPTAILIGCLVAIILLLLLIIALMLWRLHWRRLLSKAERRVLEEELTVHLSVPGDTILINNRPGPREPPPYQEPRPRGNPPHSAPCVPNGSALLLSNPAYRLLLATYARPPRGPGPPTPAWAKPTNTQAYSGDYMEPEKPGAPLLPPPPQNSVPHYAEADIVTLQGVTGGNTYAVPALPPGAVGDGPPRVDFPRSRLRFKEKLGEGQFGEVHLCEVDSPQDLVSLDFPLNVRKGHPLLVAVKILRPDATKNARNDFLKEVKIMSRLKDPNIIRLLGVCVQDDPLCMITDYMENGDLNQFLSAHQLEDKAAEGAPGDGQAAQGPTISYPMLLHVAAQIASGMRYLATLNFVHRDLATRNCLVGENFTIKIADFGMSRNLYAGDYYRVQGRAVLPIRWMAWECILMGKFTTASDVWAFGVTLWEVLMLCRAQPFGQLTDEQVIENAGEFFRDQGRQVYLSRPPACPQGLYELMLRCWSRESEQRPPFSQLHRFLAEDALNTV

[9] = biological target: Ephrin type-A receptor 3 (Homo sapiens) (UniProt P29320); details: Compound concentration 1000.0 nM
[10] = biological target: Mitogen-activated protein kinase 3 (Homo sapiens) (UniProt P27361); details: Compound concentration 1000.0 nM
[11] = tested on: Receptor-type tyrosine-protein kinase FLT3 (Homo sapiens), P36888 [D835V]; details: Compound concentration 1000.0 nM
[12] = biological target: Tyrosine-protein kinase JAK3 (Homo sapiens) (UniProt P52333); details: Compound concentration 1000.0 nM
[13] = tested on: Mast/stem cell growth factor receptor Kit (Homo sapiens), P10721 [V559D,T670I]; details: Compound concentration 1000.0 nM
[14] = biological target: Tyrosine-protein kinase Mer (Homo sapiens) (UniProt Q12866); details: Compound concentration 1000.0 nM
[15] = biological target: Myosin light chain kinase (Homo sapiens) (UniProt Q32MK0); details: Compound concentration 1000.0 nM
[16] = biological target: Myosin light chain kinase 2, skeletal/cardiac muscle (Homo sapiens) (UniProt Q9H1R3); details: Compound concentration 1000.0 nM
Myosin light chain kinase 2, skeletal/cardiac muscle (Homo sapiens), sequence (Q9H1R3 whole entry): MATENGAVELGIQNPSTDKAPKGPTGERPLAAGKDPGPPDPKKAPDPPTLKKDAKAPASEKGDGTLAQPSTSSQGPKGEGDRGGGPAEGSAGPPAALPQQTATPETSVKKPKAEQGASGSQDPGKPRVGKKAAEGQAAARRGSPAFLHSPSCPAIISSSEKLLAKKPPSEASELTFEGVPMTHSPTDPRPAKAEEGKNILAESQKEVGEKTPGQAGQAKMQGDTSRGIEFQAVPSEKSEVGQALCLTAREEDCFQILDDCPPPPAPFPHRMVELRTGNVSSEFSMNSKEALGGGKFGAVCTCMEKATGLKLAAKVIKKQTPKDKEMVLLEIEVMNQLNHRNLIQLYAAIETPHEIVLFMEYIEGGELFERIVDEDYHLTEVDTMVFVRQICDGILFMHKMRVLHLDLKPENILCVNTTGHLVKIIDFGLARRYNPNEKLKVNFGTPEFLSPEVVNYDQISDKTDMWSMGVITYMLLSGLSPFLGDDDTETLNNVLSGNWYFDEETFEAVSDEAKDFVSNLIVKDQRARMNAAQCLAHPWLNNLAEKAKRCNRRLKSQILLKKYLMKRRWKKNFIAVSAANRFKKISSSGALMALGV

[17] = biological target: Serine/threonine-protein kinase 38 (Homo sapiens) (UniProt Q15208); details: Compound concentration 1000.0 nM
Serine/threonine-protein kinase 38 (Homo sapiens), sequence (Q15208 2-465 limits assumed): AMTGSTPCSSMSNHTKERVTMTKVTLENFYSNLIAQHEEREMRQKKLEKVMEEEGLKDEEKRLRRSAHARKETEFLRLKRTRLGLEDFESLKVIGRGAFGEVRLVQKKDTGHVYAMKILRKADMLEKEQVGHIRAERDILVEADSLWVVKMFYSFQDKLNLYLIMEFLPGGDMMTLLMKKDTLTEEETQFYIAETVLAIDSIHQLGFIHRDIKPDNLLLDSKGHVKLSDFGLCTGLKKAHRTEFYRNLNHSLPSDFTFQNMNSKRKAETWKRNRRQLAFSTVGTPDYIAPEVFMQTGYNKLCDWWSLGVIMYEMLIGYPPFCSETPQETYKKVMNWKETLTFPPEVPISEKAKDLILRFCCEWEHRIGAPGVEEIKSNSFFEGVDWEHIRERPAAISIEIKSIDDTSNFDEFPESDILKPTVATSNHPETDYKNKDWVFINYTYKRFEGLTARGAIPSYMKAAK

[18] = tested on: Phosphatidylinositol 4,5-bisphosphate 3-kinase catalytic subunit alpha isoform (Homo sapiens), P42336 [E545A]; details: Compound concentration 1000.0 nM
[19] = biological target: Serine/threonine-protein kinase N2 (Homo sapiens) (UniProt Q16513); details: Compound concentration 1000.0 nM
Serine/threonine-protein kinase N2 (Homo sapiens), sequence (Q16513 whole entry, looked up): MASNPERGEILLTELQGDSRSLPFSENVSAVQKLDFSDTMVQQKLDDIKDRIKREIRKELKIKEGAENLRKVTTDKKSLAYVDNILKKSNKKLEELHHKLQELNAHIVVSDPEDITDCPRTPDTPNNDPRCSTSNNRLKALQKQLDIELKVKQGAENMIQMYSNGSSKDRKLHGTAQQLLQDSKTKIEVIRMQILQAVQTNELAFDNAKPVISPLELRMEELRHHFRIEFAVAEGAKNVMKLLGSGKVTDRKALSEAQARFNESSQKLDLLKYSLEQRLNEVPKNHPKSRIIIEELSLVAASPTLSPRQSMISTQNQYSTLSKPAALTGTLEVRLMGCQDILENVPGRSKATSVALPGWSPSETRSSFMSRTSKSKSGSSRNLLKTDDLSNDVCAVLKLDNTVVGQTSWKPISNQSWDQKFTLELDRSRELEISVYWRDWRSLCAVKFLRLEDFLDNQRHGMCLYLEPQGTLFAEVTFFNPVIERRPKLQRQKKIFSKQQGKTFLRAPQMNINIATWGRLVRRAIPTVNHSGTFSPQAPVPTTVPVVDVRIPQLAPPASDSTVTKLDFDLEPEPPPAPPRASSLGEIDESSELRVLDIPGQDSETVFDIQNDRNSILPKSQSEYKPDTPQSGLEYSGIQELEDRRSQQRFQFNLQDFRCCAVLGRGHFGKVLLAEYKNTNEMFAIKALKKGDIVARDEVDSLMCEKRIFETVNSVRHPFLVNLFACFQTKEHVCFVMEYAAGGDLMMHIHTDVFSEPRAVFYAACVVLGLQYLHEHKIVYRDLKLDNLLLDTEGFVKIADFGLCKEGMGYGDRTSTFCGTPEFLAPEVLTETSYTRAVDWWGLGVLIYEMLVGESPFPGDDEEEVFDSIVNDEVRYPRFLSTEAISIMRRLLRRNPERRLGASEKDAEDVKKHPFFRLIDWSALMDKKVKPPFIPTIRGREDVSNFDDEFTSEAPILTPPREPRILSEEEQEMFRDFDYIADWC

[20] = biological target: cGMP-dependent protein kinase 1 (Homo sapiens) (UniProt Q13976); details: Compound concentration 1000.0 nM
[21] = biological target: Receptor-interacting serine/threonine-protein kinase 2 (Homo sapiens) (UniProt O43353); details: Compound concentration 1000.0 nM
[22] = biological target: Serine/threonine-protein kinase SBK1 (Homo sapiens) (UniProt Q52WX2); details: Compound concentration 1000.0 nM
Serine/threonine-protein kinase SBK1 (Homo sapiens), sequence (Q52WX2 whole entry): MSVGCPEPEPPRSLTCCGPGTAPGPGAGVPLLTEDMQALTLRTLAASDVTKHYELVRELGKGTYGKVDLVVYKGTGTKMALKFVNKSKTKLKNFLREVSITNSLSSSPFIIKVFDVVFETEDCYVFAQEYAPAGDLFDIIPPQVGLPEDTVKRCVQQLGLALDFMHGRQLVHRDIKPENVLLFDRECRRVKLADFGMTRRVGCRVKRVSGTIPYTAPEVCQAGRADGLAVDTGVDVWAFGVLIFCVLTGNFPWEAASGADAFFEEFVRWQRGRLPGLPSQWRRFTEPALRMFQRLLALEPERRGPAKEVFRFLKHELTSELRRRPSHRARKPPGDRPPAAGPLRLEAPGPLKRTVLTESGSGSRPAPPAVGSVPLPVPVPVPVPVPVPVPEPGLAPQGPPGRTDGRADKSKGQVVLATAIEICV

[23] = biological target: SRSF protein kinase 3 (Homo sapiens) (UniProt Q9UPE1); details: Compound concentration 1000.0 nM
SRSF protein kinase 3 (Homo sapiens), sequence (Q9UPE1 whole entry): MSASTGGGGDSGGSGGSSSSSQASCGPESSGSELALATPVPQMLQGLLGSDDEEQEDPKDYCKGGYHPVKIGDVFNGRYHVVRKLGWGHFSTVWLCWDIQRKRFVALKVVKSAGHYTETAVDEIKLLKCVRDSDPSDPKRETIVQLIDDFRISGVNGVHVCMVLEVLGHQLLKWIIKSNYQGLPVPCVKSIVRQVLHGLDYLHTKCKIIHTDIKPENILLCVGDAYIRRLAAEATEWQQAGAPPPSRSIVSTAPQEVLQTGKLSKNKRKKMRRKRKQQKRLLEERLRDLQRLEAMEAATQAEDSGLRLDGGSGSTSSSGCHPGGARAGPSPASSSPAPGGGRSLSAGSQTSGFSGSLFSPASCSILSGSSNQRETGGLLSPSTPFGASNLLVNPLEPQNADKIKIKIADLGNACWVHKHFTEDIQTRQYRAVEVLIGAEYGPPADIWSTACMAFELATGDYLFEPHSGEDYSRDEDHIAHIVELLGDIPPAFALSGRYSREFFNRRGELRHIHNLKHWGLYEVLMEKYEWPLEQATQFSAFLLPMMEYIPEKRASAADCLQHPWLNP

[24] = biological target: Testis-specific serine/threonine-protein kinase 1 (Homo sapiens) (UniProt Q9BXA7); details: Compound concentration 1000.0 nM
[25] = biological target: Serine/threonine-protein kinase WNK3 (Homo sapiens) (UniProt Q9BYP7); details: Compound concentration 1000.0 nM
[26] = biological target: T1, Muscarinic acetylcholine receptor M4 (Homo sapiens); details: Compound concentration 10.0 uM

CNC(=O)Nc1ccc2c(c1)CC[C@@]21OC(=O)N(CC(=O)N(Cc2ccc(F)cc2)[C@@H](C)C(F)(F)F)C1=O [A-485]
IC50 (LNCaP-Clone-FGC): 0.381 µM (active) | inhibition [1]: 14% | inhibition [2]: 11% | inhibition [3]: 10% | inhibition [4]: 6% | inhibition [5]: -4% | residual activity [6]: 87% | residual activity [7]: 84% | residual activity [8]: 100% | residual activity [9]: 100% | residual activity [10]: 92% | residual activity [11]: 76% | residual activity [12]: 73% | residual activity [13]: 93% | residual activity [14]: 82% | residual activity [15]: 90% | residual activity [16]: 84% | residual activity [17]: 100% | residual activity [18]: 91% | residual activity [19]: 97% | residual activity [20]: 100% | residual activity [21]: 100% | residual activity [22]: 79% | residual activity [23]: 95% | residual activity [24]: 84% | residual activity [25]: 83% | inhibition [26]: 11.2%

CNC(=O)Nc1ccc2c(c1)[C@@]1(CC2)OC(=O)N(CC(=O)N(Cc2ccc(F)cc2)[C@@H](C)C(F)(F)F)C1=O [A-486]
IC50 (LNCaP-Clone-FGC): > 10 µM (not active) | inhibition [1]: 6% | inhibition [2]: -7% | inhibition [3]: 23% | inhibition [4]: 21% | inhibition [5]: 4% | residual activity [6]: 90% | residual activity [7]: 97% | residual activity [8]: 100% | residual activity [9]: 100% | residual activity [10]: 100% | residual activity [11]: 81% | residual activity [12]: 91% | residual activity [13]: 100% | residual activity [14]: 100% | residual activity [15]: 85% | residual activity [16]: 77% | residual activity [17]: 79% | residual activity [18]: 97% | residual activity [19]: 100% | residual activity [20]: 100% | residual activity [21]: 83% | residual activity [22]: 75% | residual activity [23]: 100% | residual activity [24]: 100% | residual activity [25]: 63% | inhibition [26]: 30.4%
